# US11214803B2, “Modulators of YAP1 expression” (Ionis Pharmaceuticals, Inc., priority 2019, dated 2022)
# Strand notation (5' to 3'): a small letter for the sugar, then the base; units joined by * are phosphorothioate-linked, units joined directly phosphodiester-linked; [ ] holds rarer units or linkages, { } end groups; capitals alone tell only the bases. k = constrained ethyl (cEt); [5mC] = 5-methylcytosine; d = 2'-deoxy (DNA)
# Test system: Yap1 mRNA
# Assay: Antisense inhibition of human Yap1 in A-431 cells by cEt gapmers, single dose (Example 2, RTS4814)
# Type: cell-based
# Conditions: A-431 cells, 5,000 cells per well, free uptake, 2,000 nM modified oligonucleotide, approx. 48 hours, RTS4814, normalized to RIBOGREEN; Table 4; asterisk (*) = targets amplicon region of primer probe set
# Outline: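 Free uptake, 2,000 nM, ~48 h, A-431 at 5,000 cells/well. Readout: RT-qPCR (RTS4814), RIBOGREEN-normalized, % UTC. 16-mer 3-10-3 cEt gapmers, full PS backbone, all C as 5-methylcytosine.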
row,Substance,YAP1 (% UTC)
1,716577 (kT*k[5mC]*kT*dG*dT*d[5mC]*dA*dG*dT*dT*dA*dT*d[5mC]*k[5mC]*kT*kA; antisense) [Compound 716577],21 % UTC
2,716502 (k[5mC]*kA*k[5mC]*dA*dG*dT*dG*dA*dT*dT*dG*d[5mC]*dA*kT*kT*kT; antisense) [Compound 716502],11 % UTC
3,716388 (kA*kG*kA*dG*dG*dT*dG*dG*dT*d[5mC]*dT*dT*dG*kT*kT*k[5mC]; antisense) [Compound 716388],55 % UTC

# Same assay, conditions: Table 5; A-431 cells, 5,000 cells per well, free uptake, 2,000 nM modified oligonucleotide, approx. 48 hours; RTS4814; normalized to RIBOGREEN; Yap1 mRNA relative to untreated control cells
row,Substance,YAP1 (% UTC)
1,716422 (kA*kG*kT*dA*dT*d[5mC]*dT*dT*dG*d[5mC]*dT*dG*dG*kA*k[5mC]*kG; antisense) [Compound 716422],39 % UTC
2,716383 (kT*k[5mC]*kA*dT*d[5mC]*dA*dT*dA*dT*dT*d[5mC]*dT*dG*k[5mC]*kT*kG; antisense) [Compound 716383],98 % UTC
3,716464 (kT*kA*k[5mC]*dT*dT*d[5mC]*dA*dA*dA*d[5mC]*dA*dT*d[5mC]*kT*kG*k[5mC]; antisense) [Compound 716464],62 % UTC
4,716455 (kG*kT*kT*dA*dT*dG*dT*dT*dT*dG*dG*dG*dT*kG*kT*kG; antisense) [Compound 716455],17 % UTC

# Same assay, conditions: Table 6; A-431 cells, 5,000 cells per well, free uptake, 2,000 nM modified oligonucleotide, approx. 48 hours; RTS4814; normalized to RIBOGREEN; Yap1 mRNA relative to untreated control cells
row,Substance,YAP1 (% UTC)
1,716510 (antisense k[5mC]*kA*kA*d[5mC]*dA*dT*dG*d[5mC]*dT*dA*dT*dG*dT*kA*kA*kT) [Compound 716510],122 % UTC
2,716402 (kA*kT*kT*dT*dT*dG*dA*dG*dT*d[5mC]*d[5mC]*d[5mC]*dA*k[5mC]*k[5mC]*kA; antisense) [Compound 716402],85 % UTC
3,716501 (kG*k[5mC]*kA*d[5mC]*dT*dG*dA*dA*dA*dG*dT*dA*d[5mC]*kT*kT*kA; antisense) [Compound 716501],32 % UTC
4,716528 (antisense kT*kT*kA*dG*dG*dT*d[5mC]*dT*d[5mC]*d[5mC]*dT*dT*d[5mC]*kA*kG*kG) [Compound 716528],70 % UTC

# Same assay, conditions: Table 18; A-431 cells, 5,000 cells per well, free uptake, 2,000 nM modified oligonucleotide, approx. 48 hours; RTS4814; normalized to RIBOGREEN; Yap1 mRNA as percent of untreated control
row,Substance,YAP1 (% UTC)
1,1076324 (kG*k[5mC]*kT*d[5mC]*dA*dA*dA*dA*dG*dG*dT*d[5mC]*dT*k[5mC]*kT*k[5mC]; antisense) [Compound 1076324],13 % UTC
2,1076292 (kT*kA*kT*dT*dA*dT*dT*dG*dA*dG*dT*dT*dA*kT*k[5mC]*k[5mC]; antisense) [Compound 1076292],27 % UTC

# Same assay, conditions: Table 19; A-431 cells, 5,000 cells per well, free uptake, 2,000 nM modified oligonucleotide, approx. 48 hours; RTS4814; normalized to RIBOGREEN; Yap1 mRNA as percent of untreated control
row,Substance,YAP1 (% UTC)
1,1074341 (antisense kA*kT*k[5mC]*d[5mC]*d[5mC]*dG*dG*dG*dA*dG*dA*dA*dG*kA*k[5mC]*kA) [Compound 1074341],106 % UTC
2,1075493 (antisense kA*kG*kA*d[5mC]*dA*dA*dG*dG*dG*dA*dT*dG*d[5mC]*kT*kA*kA) [Compound 1075493],67 % UTC
3,1074533 (antisense kT*kA*kG*dA*dA*d[5mC]*dA*d[5mC]*dT*dA*dA*dA*d[5mC]*kT*kA*k[5mC]) [Compound 1074533],80 % UTC
4,1075845 (kG*kT*kG*dG*dA*dA*dA*dA*dG*dT*dA*dT*dG*kA*kT*k[5mC]; antisense) [Compound 1075845],19 % UTC

# Same assay, conditions: Table 20; Yap1 mRNA, percent of untreated control; 3-10-3 cEt gapmers targeting SEQ ID NO.: 1 and 2
row,Substance,YAP1 (% UTC)
1,1076262 (kA*kG*kA*d[5mC]*dA*dA*dT*dA*dG*dT*d[5mC]*dT*dG*kG*kG*k[5mC]; antisense) [Compound 1076262],41 % UTC
2,1074694 (antisense k[5mC]*k[5mC]*k[5mC]*d[5mC]*d[5mC]*d[5mC]*d[5mC]*d[5mC]*d[5mC]*dA*dA*dA*d[5mC]*kT*kT*kT) [Compound 1074694],79 % UTC

# Same assay, conditions: Table 22; Yap1 mRNA as percent of untreated control; 3-10-3 cEt gapmers; single dose
row,Substance,YAP1 (% UTC)
1,1076520 (antisense kA*kA*kT*dT*dA*dT*dA*dT*dG*d[5mC]*dA*dG*d[5mC]*kA*kG*k[5mC]) [Compound 1076520],21 % UTC
2,1074696 (antisense kG*kT*k[5mC]*d[5mC]*d[5mC]*d[5mC]*d[5mC]*dT*dA*dA*dA*dT*d[5mC]*kT*kT*k[5mC]) [Compound 1074696],38 % UTC
3,1075304 (k[5mC]*kA*k[5mC]*dG*dG*dG*dT*dA*d[5mC]*d[5mC]*dA*dG*dA*kA*kA*kA; antisense) [Compound 1075304],50 % UTC

# Same assay, conditions: Table 23; Yap1 mRNA as percent of untreated control; 3-10-3 cEt gapmers; single dose
row,Substance,YAP1 (% UTC)
1,1074793 (kA*kA*kT*d[5mC]*dA*dA*dT*dG*dT*dG*d[5mC]*dT*d[5mC]*k[5mC]*kA*kT; antisense) [Compound 1074793],9 % UTC
2,1075785 (k[5mC]*kA*kT*dT*dT*dT*dA*dT*dA*dG*dG*dG*d[5mC]*k[5mC]*kA*kT; antisense) [Compound 1075785],2 % UTC

# Same assay, conditions: Table 24; Yap1 mRNA as percent of untreated control; 3-10-3 cEt gapmers targeting SEQ ID NO.: 1, and 2
row,Substance,YAP1 (% UTC)
1,1074474 (k[5mC]*k[5mC]*kA*dA*d[5mC]*d[5mC]*d[5mC]*d[5mC]*d[5mC]*d[5mC]*d[5mC]*dA*d[5mC]*k[5mC]*kG*kA; antisense) [Compound 1074474],71 % UTC
2,1074154 (antisense k[5mC]*k[5mC]*kA*d[5mC]*dG*dG*dG*d[5mC]*d[5mC]*dG*dA*dG*dG*kT*kG*kG) [Compound 1074154],100 % UTC
3,1075082 (antisense k[5mC]*kT*kT*dT*dA*dG*dA*dT*dA*d[5mC]*dA*dA*dG*kA*kG*kG) [Compound 1075082],80 % UTC
4,1074570 (antisense kA*kT*kG*dA*dA*d[5mC]*d[5mC]*dT*dA*d[5mC]*dT*d[5mC]*dA*k[5mC]*kT*kG) [Compound 1074570],12 % UTC

# Same assay, conditions: Table 25; Yap1 mRNA as percent of untreated control; 3-10-3 cEt gapmers targeting SEQ ID NO.: 1, and 2
row,Substance,YAP1 (% UTC)
1,1074731 (antisense k[5mC]*kA*kG*dG*dT*dA*dT*d[5mC]*dA*d[5mC]*dA*dG*dT*kA*k[5mC]*kT) [Compound 1074731],19 % UTC

# Same assay, conditions: Table 32; Yap1 mRNA, percent of untreated control; 3-10-3 cEt gapmers targeting SEQ ID NO.: 1, and 2
row,Substance,YAP1 (% UTC)
1,1075762 (kG*kA*kT*dA*dA*dA*dT*dG*dG*dG*dT*dT*dG*kA*kT*kT; antisense) [compound 1075762],20 % UTC
2,1074738 (k[5mC]*kT*kT*d[5mC]*dA*dG*dG*dT*d[5mC]*dA*dG*dT*dA*k[5mC]*kA*kG; antisense) [compound 1074738],12 % UTC

# Same assay, conditions: Table 33; Yap1 mRNA, percent of untreated control; 3-10-3 cEt gapmers targeting SEQ ID NO.: 1, and 2
row,Substance,YAP1 (% UTC)
1,1076563 (k[5mC]*kA*kA*dA*dG*dT*dA*dA*dT*dT*dA*dA*dA*k[5mC]*kG*kA; antisense) [compound 1076563],91 % UTC
2,1074867 (kT*kA*kA*d[5mC]*dA*dT*dA*dT*dG*dA*dG*d[5mC]*dA*kT*kG*k[5mC]; antisense) [compound 1074867],40 % UTC
3,1076179 (kA*kA*kT*dT*dA*dG*d[5mC]*d[5mC]*dA*dA*d[5mC]*d[5mC]*dA*k[5mC]*k[5mC]*kT; antisense) [compound 1076179],38 % UTC
4,1074643 (antisense kT*kT*kG*dA*dA*dG*dG*dG*d[5mC]*d[5mC]*dA*dA*dA*kA*kT*kA) [compound 1074643],68 % UTC

# Same assay, conditions: Yap1 mRNA as percent of untreated control; A-431 cells; 3-10-3 cEt gapmers targeting SEQ ID NO.: 1, and 2; Table 30
row,Substance,YAP1 (% UTC)
1,1076432 (k[5mC]*kA*kT*dT*dA*dG*dT*dA*dT*dT*d[5mC]*dA*d[5mC]*kT*kG*kT; antisense) [compound 1076432],18 % UTC
2,1074352 (antisense k[5mC]*kA*kT*dG*d[5mC]*dT*dT*dA*dG*dT*d[5mC]*d[5mC]*dA*k[5mC]*kT*kG) [compound 1074352],69 % UTC
3,1076368 (antisense k[5mC]*kA*kT*dT*dT*dT*dA*dT*dG*dT*dA*dA*dG*kG*k[5mC]*k[5mC]) [compound 1076368],15 % UTC

# Same assay, conditions: Yap1 mRNA as percent of untreated control; A-431 cells; 3-10-3 cEt gapmers targeting SEQ ID NO.: 1, and 2; Table 31
row,Substance,YAP1 (% UTC)
1,1076529 (k[5mC]*kT*kA*dT*dA*dA*dT*dG*dA*dG*dG*dA*dT*kT*kA*k[5mC]; antisense) [compound 1076529],108 % UTC
2,1076145 (k[5mC]*k[5mC]*kT*dT*dA*dT*dA*dG*dG*dT*dT*dA*dT*kA*kG*kT; antisense) [compound 1076145],41 % UTC
3,1076305 (kT*kA*k[5mC]*dT*dA*dA*dT*dA*dA*dG*d[5mC]*d[5mC]*dT*k[5mC]*kA*k[5mC]; antisense) [compound 1076305],37 % UTC
4,1076273 (kA*kA*kA*d[5mC]*dA*dA*dA*dA*dT*dG*dG*d[5mC]*dG*kA*kA*kT; antisense) [compound 1076273],84 % UTC
5,1075025 (antisense kA*k[5mC]*kT*dT*dA*dA*dG*dA*dA*d[5mC]*dT*d[5mC]*dA*k[5mC]*kA*k[5mC]) [compound 1075025],58 % UTC
6,1074193 (antisense kG*kG*kT*d[5mC]*d[5mC]*dG*dG*dA*d[5mC]*dG*dG*d[5mC]*dG*kG*kG*k[5mC]) [compound 1074193],74 % UTC
7,1076561 (kG*kT*kA*dT*dA*d[5mC]*d[5mC]*dA*dA*dG*d[5mC]*dT*dA*k[5mC]*kT*k[5mC]; antisense) [compound 1076561],22 % UTC
